Entries after “also recorded” stand apart in the source; their conditions may differ.
Biological target: human A2AAR (Homo sapiens, UniProt P29274)
Assay: Radioligand binding assay at A2AAR, membranes of HEK-293 cells, [3H]16
Conditions: comparison within the amino acid conjugate series and with parent 16

human A2AAR, sequence (P29274 whole entry): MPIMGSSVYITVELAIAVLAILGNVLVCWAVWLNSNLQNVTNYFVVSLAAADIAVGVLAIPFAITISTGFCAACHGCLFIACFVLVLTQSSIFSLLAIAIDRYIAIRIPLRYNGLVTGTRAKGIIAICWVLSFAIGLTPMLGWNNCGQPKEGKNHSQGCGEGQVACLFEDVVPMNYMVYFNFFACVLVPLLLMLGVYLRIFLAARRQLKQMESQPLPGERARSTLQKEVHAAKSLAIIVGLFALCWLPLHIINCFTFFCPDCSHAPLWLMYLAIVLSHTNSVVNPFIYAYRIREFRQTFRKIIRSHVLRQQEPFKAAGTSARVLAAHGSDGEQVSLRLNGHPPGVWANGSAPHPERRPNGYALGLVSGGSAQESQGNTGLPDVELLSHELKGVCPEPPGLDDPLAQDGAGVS

Row | Compound | Relative A2AAR binding affinity (in words)
1 | CCNC(=O)[C@H]1O[C@@H](n2cnc3c(N)nc(NCCc4ccc(CCC(=O)N[C@H](CCCNC(=N)N)C(=O)O)cc4)nc32)[C@H](O)[C@@H]1O [Compound 36] | some gain in affinity
2 | CCNC(=O)[C@H]1O[C@@H](n2cnc3c(N)nc(NCCc4ccc(CCC(=O)N[C@H](Cc5ccccc5)C(=O)O)cc4)nc32)[C@H](O)[C@@H]1O [Compound 38] | most potent; also recorded: some gain in affinity
3 | CCNC(=O)[C@H]1O[C@@H](n2cnc3c(N)nc(NCCc4ccc(CCC(=O)N[C@H](Cc5c[nH]cn5)C(=O)O)cc4)nc32)[C@H](O)[C@@H]1O [Compound 42] | most potent; also recorded: some gain in affinity

Reference: publication PMC3261785 (Journal of Medicinal Chemistry, 2011)
